# Assay results as given in patent publication US11173149B2, “Inhibition of protein disulfide-isomerase A3” (Romark Laboratories L.C., priority 2017, dated 2021).
# Tests used:
# [1] = biological target: T1, recombinant human PDIA3 (Homo sapiens, UniProt P30101); assay: Disulfide reductase activity assay with Di-E-GSSG substrate; format: biochemical
# T1 construct: full-length recombinant human PDIA3 (rhPDIA3, Abcam); purchased Abcam
# T1 sequence (P30101 25-505): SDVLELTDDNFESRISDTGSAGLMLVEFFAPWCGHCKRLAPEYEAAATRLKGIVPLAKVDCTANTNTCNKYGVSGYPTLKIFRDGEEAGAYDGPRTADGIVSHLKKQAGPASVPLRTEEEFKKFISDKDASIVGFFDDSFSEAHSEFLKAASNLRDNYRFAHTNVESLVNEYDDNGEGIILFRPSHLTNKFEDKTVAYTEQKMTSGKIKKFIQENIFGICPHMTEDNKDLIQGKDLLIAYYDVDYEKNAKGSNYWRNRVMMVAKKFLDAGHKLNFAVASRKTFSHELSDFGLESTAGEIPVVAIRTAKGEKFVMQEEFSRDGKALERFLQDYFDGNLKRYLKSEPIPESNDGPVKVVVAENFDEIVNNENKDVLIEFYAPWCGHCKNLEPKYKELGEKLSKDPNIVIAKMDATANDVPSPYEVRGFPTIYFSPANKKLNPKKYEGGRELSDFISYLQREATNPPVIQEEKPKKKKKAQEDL
# Experimental: PDIA3 activity was determined by enzyme-dependent disulfide reduction assay. The disulfide reductase activity was tested in vitro using dieosin glutathione disulfide (Di-E-GSSG) as substrate. Recombinant human PDIA3 (rhPDIA3) (2 nM), pre-incubated with different concentrations of TIZ or control diluent (DMSO) for 10 min. at room temperature, was added to Di-E-GSSG (150 nM) in the presence of 5 μM DTT (arrow). PDIA3 reductase activity cleaves the S—S bond of Di-E-GSSG resulting in the release of fluorescent 2-eosin-GSH (EGSH). The increase in fluorescence was monitored at λ=545 nm with excitation at λ=525 nm, and expressed as relative fluorescence units (RFU).
# FIG. 4A-B show effect of TIZ on PDIA3 and PDIA1 disulfide reductase activity. Effect of TIZ (5 μg/ml) on PDIA3 and PDIA1 (PDI) activities were measured by Di-E-GSSG assay using the same concentration (20 nM) of PDIA3 or PDIA1.
# Disulfide reductase (DR) activity of PDIA3 or protein disulfide isomerase (PDI) was monitored by sensitive fluorescent assay using dieosin glutathione disulfide (Di-E-GSSG) (Cayman Chemical) as a substrate. DR activity assay was performed in a reaction buffer (0.1 M potassium phosphate, pH 7.0; 2 mM EDTA) by adding 2 or 20 nM of full-length recombinant human PDIA3 (rhPDIA3, Abcam) or PDI (rhPDIA1, R&D Systems) to different concentrations of Di-E-GSSG in the presence of 5 μM DTT. The reductase activity of disulfide isomerases cleaves the S—S bond of Di-E-GSSG resulting in the release of fluorescent 2-eosin-GSH (EGSH). To test the effect of TIZ on PDIA3 and PDI reductase activity, recombinant human PDIA3 or PDIA1 were previously incubated for 10 min at room temperature with different concentrations of TIZ or control diluent (DMSO) in the reaction buffer, unless differently specified. The increase in fluorescence was monitored at λ=545 nm with excitation at λ=525 nm at 25° C. with continuous stirring, and expressed as relative fluorescence units (RFU).
# Thiazolides inhibit PDIA3 disulfide isomerase activity. To investigate whether thiazolides may directly affect PDIA3 disulfide-isomerase activity, we performed a fluorescence-based reductase in vitro assay using purified full-length recombinant human PDIA3 and oxidized glutathione coupled to dieosin (Di-E-GSSG) as a substrate. NTZ's circulating active metabolite, TIZ, was utilized for these studies.
# Recombinant human PDIA3 (rhPDIA3) (2 nM) was pre-incubated with different concentrations of TIZ or control diluent (DMSO) for 10 min. at room temperature. […] PDIA3 reductase activity cleaves the S—S bond of Di-E-GSSG resulting in the release of fluorescent 2-eosin-GSH (EGSH), that is measured in function of time by fluorimetry, as described in Materials and Methods. […]
# [2] = tested on: PDIA3-HA protein-protein interaction; format: cell-based, canine
# [3] = tested on: PR8 IAV HA transport to the plasma membrane; format: cell-based; details: NTZ 5 μg/ml after adsorption, A549 cells, PR8 5 PFU/cell, 6 h p.i.
Structure (SMILES),"effect on PDIA3 versus human PDIA1 reductase activity ([1]; TIZ 5 μg/ml, PDIA3 or PDIA1 20 nM, preliminary experiment)","lowest TIZ concentration tested at which inhibitory activity was observed ([1]; rhPDIA3 2 nM, Di-E-GSSG 150 nM, 5 μM DTT) [µg/mL]","PDIA3 disulfide reductase activity (time-course of EGSH fluorescence) ([1]; rhPDIA3 2 nM, pre-incubated 10 min with different TIZ concentrations, Di-E-GSSG 150 nM, 5 μM DTT)",HA-PDIA3 interaction detected by PLA [2],PDIA3 disulfide-isomerase activity in an in vitro assay (conclusion statement) [1],plasma membrane-incorporated HA (HA transport to the plasma membrane) [3]
"O=C(Nc1ncc([N+](=O)[O-])s1)c1ccccc1O [TIZ, tizoxanide]",preferentially inhibits PDIA3 reductase activity,1,inhibits PDIA3 activity in a dose-dependent manner,–,–,–
"CC(=O)Oc1ccccc1C(=O)Nc1ncc([N+](=O)[O-])s1 [NTZ, nitazoxanide]",–,–,–,PDIA3 strongly interacts with HA forming large spots,directly inhibits PDIA3 disulfide-isomerase activity,inhibits PR8 IAV HA transport to the plasma membrane
